Source: patent US4472421A, “Azole antimycotics and their use in treating skin conditions caused by Pityrosporum ovale” (Bayer Aktiengesellschaft, priority 1974, dated 1984)
In brackets after ≈: the same amount, converted by molar mass. Structures can show the parent of a compound that is named as a salt. Where two headings read alike, the source gives them in different places.

System: Pityrosporum ovale
Experiment: MIC and PI determination on Abbe's medium agar slants, dilution series
Type: cell-based
Conditions: Malassezia furfur, 28° C.
Experimental: Pityrosporum ovale was cultured and the MIC determinations were carried out with a large number of azole derivatives. The growth of Pityrosporum ovale is considerably slower than, for example, of species of Candida or Torulopsis--it takes 3 to 5 days. It requires Abbe's medium as a special nutrient medium.
1. Setting up the dilution series of each preparation: 6.4 mg of preparation are dissolved in 1 ml of analytical grade dimethylformamide and 9 ml of distilled water are added. 1 ml now contains 640 mcg of preparation. If 2 ml are withdrawn and added to 2 ml of H2 O, the resulting concentration is 320 mcg/ml. If this is continued progressively,the following dilution series, in mcg/ml, is obtained: 640-320-160-80-40-20-10-5-2.5-1.25-0.625-0.313-0.156-0.078-0.039-0.02-0.01
2. Charging the test tubes: 0.5 ml portions of the particular dilution are introduced into test tubes.
3. Charging with nutrient medium: Abbe's medium is used.
200 ml portions of Abbe's medium are introduced into nutrient medium flasks. For use, the previously calculated amount of Abbe's medium is liquefied in a steaming pot and cooled until only warm to the touch; 4.5 ml are then added to each test tube. A second person receives each test tube and twirls it between his hands, like a kitchen whisk. This achieves good mixing of the diluted preparation with the nutrient medium. Each test tube is then immediately brought into a slanting position, in the same way as is usually employed to prepare agar slants.
The culture control and the nutrient medium control are each 1 test tube in which 0.5 ml of H2 O is introduced in place of the preparation.
4. Inoculation with Pityrosporum ovale: A culture which had been grown for 3 weeks in Benham's fluid medium at 28° C. was used.
After the nutrient medium has solidified thoroughly in all the test tubes, 0.1 ml of culture is allowed to run over each slant, except for the test tube of the nutrient medium control. 0.1 ml of physiological NaCl solution is added to the latter.
5. Incubation and readings: The incubation is carried out at 28° C. After 3 days, the culture control test tubes show germ growth, which reaches an optimum after 5 days.
The MIC=minimum inhibitory concentration, and the PI=partial inhibition (retardation of growth by about 90% relative to the control, that is to say only about 10% of the germs have grown) are read off in comparison to the control.
Of course,--as is usual in microbiology--all the work was carried out under sterile conditions, that is to say, using, for example, sterile test tubes, pipettes, nutrient media and the like.

[1] = 72 h, reading after 3 days, read-out: MIC (minimum inhibitory concentration), reading after 3 days
[2] = 120 h, reading after 5 days, read-out: MIC (minimum inhibitory concentration), reading after 5 days
[3] = 72 h, reading after 3 days, read-out: PI (partial inhibition, growth reduced by at least 90% compared to the control), reading after 3 days
[4] = 120 h, reading after 5 days, read-out: PI (partial inhibition, growth reduced by at least 90% compared to the control), reading after 5 days

SMILES | MIC [1] | MIC [2] | IC90 [3] | IC90 [4]
CC(C)(C)C(=O)C(Oc1ccc(Cl)cc1)n1ccnc1 (stereo not drawn) [Example 1, [1-imidazolyl-(1)]-[1-(4'-chloro)phenoxy]-3-dimethyl-butane-2-one] | < 1 µg/mL | < 1 µg/mL |  | 
CC(C)(C)C(=O)C(Cn1ccnc1)Oc1ccc(Cl)cc1 (stereo not drawn) [Example 8] | 4 µg/mL (≈ 13 µM) | 8 µg/mL (≈ 26.1 µM) | 2 µg/mL (≈ 6.52 µM) | 4 µg/mL (≈ 13 µM)
Clc1ccc(C(c2ccccc2)(c2ccccc2)n2ccnc2)cc1 [Example 16] | > 64 µg/mL | > 64 µg/mL | 16 µg/mL (≈ 46.4 µM) | 16 µg/mL (≈ 46.4 µM)
CC(C)(C)C(=O)C(Oc1ccc(Cl)cc1Cl)n1ccnc1 (stereo not drawn) [Example 2] | < 1 µg/mL | < 1 µg/mL |  | 
CC(C)(C)C(=O)C(Cn1ccnc1)Oc1ccc(-c2ccccc2)cc1 (stereo not drawn) [Example 12] | 8 µg/mL (≈ 23 µM) | 8 µg/mL (≈ 23 µM) | < 1 µg/mL | < 1 µg/mL
CC1(n2ccnc2)c2ccccc2CCc2ccccc21 [Example 18] | > 64 µg/mL | > 64 µg/mL | 32 µg/mL (≈ 117 µM) | 32 µg/mL (≈ 117 µM)
Clc1ccccc1C(c1ccccc1)(c1ccccc1)n1ccnc1 [Example 13] | 16 µg/mL (≈ 46.4 µM) | 16 µg/mL (≈ 46.4 µM) | 8 µg/mL (≈ 23.2 µM) | 8 µg/mL (≈ 23.2 µM)
CC(C)(C)C(=O)C(Cn1ccnc1)Oc1ccc(Cl)cc1Cl (stereo not drawn) [Example 5, hydrochloride] | 2 µg/mL | 2 µg/mL | < 1 µg/mL | < 1 µg/mL
CC(C)(C)C(=O)C(Oc1ccc(Br)cc1)n1ccnc1 (stereo not drawn) [Example 3] | < 1 µg/mL | < 1 µg/mL |  | 
Cc1ccccc1C1(n2ccnc2)c2ccccc2-c2ccccc21 [Example 9] | 8 µg/mL (≈ 24.8 µM) | 8 µg/mL (≈ 24.8 µM) | 2 µg/mL (≈ 6.2 µM) | 4 µg/mL (≈ 12.4 µM)
CC(C)(C)C(O)C(Oc1ccc(-c2ccccc2)cc1)n1ccnc1 (stereo not drawn) [Example 7] | 4 µg/mL (≈ 11.9 µM) | 8 µg/mL (≈ 23.8 µM) | 2 µg/mL (≈ 5.94 µM) | 2 µg/mL (≈ 5.94 µM)
CC(C)(C)C(=O)C(Oc1ccc(-c2ccc(Cl)cc2)cc1)n1ccnc1 (stereo not drawn) [Example 4, [1-imidazolyl-(1)]-[1-(4'-(4"-chlorophenyl)-phenoxy]-3,3-dimethyl-butan-2-one hydrochloride] | < 1 µg/mL | < 1 µg/mL |  | 
CC(C)(C)C(O)C(Oc1ccc(Cl)cc1Cl)(c1ccccc1)n1ccnc1 (stereo not drawn) [Example 19] | > 64 µg/mL | > 64 µg/mL | 64 µg/mL (≈ 158 µM) | 64 µg/mL (≈ 158 µM)
Cn1ccnc1C(c1ccccc1)(c1ccc(-c2ccccc2)cc1)n1ccnc1 (stereo not drawn) [Example 21] | > 64 µg/mL | > 64 µg/mL |  | 

Next, values leading:

MIC [1] | MIC [2] | IC90 [3] | IC90 [4] | SMILES
16 µg/mL (≈ 54.7 µM) | 16 µg/mL (≈ 54.7 µM) | < 1 µg/mL | < 1 µg/mL | COC(=O)C(c1ccccc1)(c1ccccc1)n1ccnc1 [Example 11]
32 µg/mL (≈ 122 µM) | 32 µg/mL (≈ 122 µM) | 4 µg/mL (≈ 15.2 µM) | 4 µg/mL (≈ 15.2 µM) | CCC(c1ccccc1)(c1ccccc1)n1ccnc1 [Example 14]
> 64 µg/mL | > 64 µg/mL | 32 µg/mL (≈ 95.6 µM) | 32 µg/mL (≈ 95.6 µM) | Clc1cccc(C(c2ccccc2)(n2ccnc2)n2ccnc2)c1 [Example 17]
> 64 µg/mL | > 64 µg/mL |  |  | Brc1cccc(C(c2ccccc2)(n2cncn2)n2cncn2)c1 [Example 22]
8 µg/mL (≈ 31 µM) | 16 µg/mL (≈ 61.9 µM) | < 1 µg/mL | < 1 µg/mL | C#CC(c1ccccc1)(c1ccccc1)n1ccnc1 [Example 10]
> 64 µg/mL | > 64 µg/mL | 64 µg/mL (≈ 169 µM) | 64 µg/mL (≈ 169 µM) | Brc1cccc(C(c2ccccc2)(n2ccnc2)n2ccnc2)c1 [Example 20]
32 µg/mL (≈ 116 µM) | 64 µg/mL (≈ 232 µM) | 4 µg/mL (≈ 14.5 µM) | 4 µg/mL (≈ 14.5 µM) | CC(=O)C(c1ccccc1)(c1ccccc1)n1ccnc1 [Example 15]
